Test results taken from patent publication US20220009920A1 (GB005, Inc., priority 2020, published 2022).

Legend:
Assay in all cases: Large panel kinase profiling
Type in all cases: biochemical
Conditions in all cases: 1 μM test article, 1 mM ATP
DDR2 = target: T1, DDR2 (Homo sapiens, UniProt Q16832)
T1 construct: AssayQuant Technologies, Inc. (service laboratory)
T1 sequence (Q16832 22-855): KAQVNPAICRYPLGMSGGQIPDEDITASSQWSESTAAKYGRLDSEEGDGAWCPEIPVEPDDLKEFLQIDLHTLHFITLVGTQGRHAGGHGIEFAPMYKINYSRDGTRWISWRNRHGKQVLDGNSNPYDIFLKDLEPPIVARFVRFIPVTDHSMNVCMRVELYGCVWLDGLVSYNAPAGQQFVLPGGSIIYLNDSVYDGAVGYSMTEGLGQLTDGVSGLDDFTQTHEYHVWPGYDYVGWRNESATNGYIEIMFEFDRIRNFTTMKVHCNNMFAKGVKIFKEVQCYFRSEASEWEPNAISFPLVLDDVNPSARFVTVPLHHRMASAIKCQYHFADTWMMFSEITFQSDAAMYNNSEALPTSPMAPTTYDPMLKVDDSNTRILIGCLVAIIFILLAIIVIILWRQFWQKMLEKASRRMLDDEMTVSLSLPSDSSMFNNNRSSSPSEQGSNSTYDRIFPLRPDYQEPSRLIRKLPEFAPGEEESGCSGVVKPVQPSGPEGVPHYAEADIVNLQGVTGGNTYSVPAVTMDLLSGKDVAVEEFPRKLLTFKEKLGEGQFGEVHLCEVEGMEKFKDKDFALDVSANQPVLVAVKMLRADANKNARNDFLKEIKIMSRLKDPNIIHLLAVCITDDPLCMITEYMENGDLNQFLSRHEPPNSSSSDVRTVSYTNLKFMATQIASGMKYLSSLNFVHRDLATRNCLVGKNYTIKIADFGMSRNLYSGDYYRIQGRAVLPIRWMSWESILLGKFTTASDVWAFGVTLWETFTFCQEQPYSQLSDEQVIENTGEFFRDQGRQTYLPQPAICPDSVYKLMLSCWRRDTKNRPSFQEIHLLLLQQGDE
Outline: (§1)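 Single-point profiling at 1 μM test article used 1 mM ATP. Phosphorylation was tracked by sensor fluorescence increase over time at 30° C., with readings each minute at excitation 360 nm and emission 485 nm.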

KDR = KDR (Homo sapiens, UniProt P35968)
Outline: as §1

MAPK12/P38G = target: T2, MAPK12/P38G (Homo sapiens, UniProt P53778)
T2 construct: AssayQuant Technologies, Inc. (service provider)
T2 sequence (P53778 1-367): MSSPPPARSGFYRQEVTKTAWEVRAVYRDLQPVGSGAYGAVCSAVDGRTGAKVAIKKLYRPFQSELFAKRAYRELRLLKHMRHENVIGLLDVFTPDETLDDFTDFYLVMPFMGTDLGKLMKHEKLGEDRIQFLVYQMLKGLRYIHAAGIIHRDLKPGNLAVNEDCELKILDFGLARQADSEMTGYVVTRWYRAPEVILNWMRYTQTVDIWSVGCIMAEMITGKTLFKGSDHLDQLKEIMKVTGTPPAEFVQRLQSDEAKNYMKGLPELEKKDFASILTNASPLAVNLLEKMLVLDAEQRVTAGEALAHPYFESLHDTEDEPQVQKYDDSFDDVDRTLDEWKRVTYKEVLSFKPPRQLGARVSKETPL
Outline: as §1

FRK = target: T3, FRK (Homo sapiens, UniProt P42685)
T3 construct: AssayQuant Technologies, Inc. (service provider)
Outline: as §1

GSK3A = target: T4, GSK3A (Homo sapiens, UniProt P49840)
T4 construct: AssayQuant Technologies, Inc. (service provider)
Outline: as §1

PRKCG/PKCG = PRKCG/PKCG (Homo sapiens, UniProt P05129)
Outline: as §1

FGFR3 = FGFR3 (Homo sapiens, UniProt P22607)
Outline: as §1

IKBKE/IKKE = target: T5, IKBKE/IKKE (Homo sapiens, UniProt Q14164)
T5 construct: AssayQuant Technologies, Inc. (service provider)
T5 sequence (Q14164 1-716): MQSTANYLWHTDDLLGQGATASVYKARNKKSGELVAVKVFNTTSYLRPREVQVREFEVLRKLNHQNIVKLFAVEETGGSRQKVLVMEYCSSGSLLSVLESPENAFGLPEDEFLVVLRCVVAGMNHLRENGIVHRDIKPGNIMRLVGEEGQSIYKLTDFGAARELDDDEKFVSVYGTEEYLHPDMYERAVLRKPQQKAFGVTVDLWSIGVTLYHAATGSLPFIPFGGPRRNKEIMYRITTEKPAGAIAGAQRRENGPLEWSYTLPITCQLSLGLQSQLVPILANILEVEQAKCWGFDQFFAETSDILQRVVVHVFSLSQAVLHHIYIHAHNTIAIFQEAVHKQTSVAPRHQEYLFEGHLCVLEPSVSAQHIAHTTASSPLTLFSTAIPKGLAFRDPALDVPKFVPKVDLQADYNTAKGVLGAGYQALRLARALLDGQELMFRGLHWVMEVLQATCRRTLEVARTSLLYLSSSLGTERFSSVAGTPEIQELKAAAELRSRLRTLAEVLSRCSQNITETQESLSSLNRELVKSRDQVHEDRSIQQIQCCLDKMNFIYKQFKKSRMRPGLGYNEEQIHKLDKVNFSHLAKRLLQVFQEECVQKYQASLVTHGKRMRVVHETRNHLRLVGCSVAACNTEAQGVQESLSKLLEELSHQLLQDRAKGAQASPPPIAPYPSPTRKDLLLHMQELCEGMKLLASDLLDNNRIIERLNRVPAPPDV
Outline: as §1

MAP3K9 = target: T6, MAP3K9 (Homo sapiens, UniProt P80192)
T6 construct: AssayQuant Technologies, Inc. (service provider)
Outline: as §1

Chain of KDR (P35968 20-1356, species assumed): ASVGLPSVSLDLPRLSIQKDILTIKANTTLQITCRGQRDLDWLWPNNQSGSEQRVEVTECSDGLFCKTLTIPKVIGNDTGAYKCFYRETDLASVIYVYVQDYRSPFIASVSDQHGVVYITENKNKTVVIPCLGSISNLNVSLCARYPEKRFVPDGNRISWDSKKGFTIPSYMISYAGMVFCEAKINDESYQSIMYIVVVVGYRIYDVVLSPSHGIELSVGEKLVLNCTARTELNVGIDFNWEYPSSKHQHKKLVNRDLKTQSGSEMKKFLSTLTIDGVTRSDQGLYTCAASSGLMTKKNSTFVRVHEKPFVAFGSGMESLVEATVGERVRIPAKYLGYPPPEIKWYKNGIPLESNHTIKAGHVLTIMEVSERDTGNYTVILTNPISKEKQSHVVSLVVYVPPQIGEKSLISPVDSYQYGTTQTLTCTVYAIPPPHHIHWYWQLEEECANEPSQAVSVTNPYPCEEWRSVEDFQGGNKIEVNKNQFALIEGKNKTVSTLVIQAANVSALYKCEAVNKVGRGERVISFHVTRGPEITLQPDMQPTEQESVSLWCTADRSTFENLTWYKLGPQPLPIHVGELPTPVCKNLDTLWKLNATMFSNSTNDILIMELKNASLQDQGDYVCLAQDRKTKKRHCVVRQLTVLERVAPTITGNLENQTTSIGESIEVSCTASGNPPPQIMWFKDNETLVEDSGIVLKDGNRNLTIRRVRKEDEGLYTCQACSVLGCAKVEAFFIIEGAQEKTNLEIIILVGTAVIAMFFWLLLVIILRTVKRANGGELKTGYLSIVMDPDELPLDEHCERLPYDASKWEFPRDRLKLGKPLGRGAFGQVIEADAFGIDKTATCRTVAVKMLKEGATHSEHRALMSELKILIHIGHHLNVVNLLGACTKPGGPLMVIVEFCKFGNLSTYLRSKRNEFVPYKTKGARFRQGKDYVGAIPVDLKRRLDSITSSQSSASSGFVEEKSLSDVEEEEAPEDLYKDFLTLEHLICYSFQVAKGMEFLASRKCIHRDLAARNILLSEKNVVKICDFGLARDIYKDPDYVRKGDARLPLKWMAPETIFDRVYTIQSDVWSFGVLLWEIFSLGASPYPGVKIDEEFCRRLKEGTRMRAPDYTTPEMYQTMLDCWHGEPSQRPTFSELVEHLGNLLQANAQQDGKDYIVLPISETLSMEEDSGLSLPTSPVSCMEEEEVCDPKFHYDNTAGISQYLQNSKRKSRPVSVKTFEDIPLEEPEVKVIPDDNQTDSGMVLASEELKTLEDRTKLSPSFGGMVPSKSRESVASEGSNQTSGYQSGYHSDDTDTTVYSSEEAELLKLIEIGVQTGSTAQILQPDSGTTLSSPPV
T3 sequence (P42685 whole entry, species assumed): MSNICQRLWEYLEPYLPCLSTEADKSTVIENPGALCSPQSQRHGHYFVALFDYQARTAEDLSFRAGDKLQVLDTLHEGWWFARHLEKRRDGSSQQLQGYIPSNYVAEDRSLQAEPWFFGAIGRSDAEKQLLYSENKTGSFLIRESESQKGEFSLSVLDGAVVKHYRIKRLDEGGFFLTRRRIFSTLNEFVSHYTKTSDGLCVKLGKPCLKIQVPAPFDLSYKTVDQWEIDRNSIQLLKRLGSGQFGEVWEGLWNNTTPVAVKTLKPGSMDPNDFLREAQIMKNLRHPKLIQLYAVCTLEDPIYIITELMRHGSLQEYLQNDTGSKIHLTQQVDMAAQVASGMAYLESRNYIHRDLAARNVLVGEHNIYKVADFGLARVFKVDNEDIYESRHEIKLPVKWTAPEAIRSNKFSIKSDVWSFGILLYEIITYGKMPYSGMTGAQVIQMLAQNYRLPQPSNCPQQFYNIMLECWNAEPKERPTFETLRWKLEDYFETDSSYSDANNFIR
Chain of FGFR3 (P22607 23-806, species assumed): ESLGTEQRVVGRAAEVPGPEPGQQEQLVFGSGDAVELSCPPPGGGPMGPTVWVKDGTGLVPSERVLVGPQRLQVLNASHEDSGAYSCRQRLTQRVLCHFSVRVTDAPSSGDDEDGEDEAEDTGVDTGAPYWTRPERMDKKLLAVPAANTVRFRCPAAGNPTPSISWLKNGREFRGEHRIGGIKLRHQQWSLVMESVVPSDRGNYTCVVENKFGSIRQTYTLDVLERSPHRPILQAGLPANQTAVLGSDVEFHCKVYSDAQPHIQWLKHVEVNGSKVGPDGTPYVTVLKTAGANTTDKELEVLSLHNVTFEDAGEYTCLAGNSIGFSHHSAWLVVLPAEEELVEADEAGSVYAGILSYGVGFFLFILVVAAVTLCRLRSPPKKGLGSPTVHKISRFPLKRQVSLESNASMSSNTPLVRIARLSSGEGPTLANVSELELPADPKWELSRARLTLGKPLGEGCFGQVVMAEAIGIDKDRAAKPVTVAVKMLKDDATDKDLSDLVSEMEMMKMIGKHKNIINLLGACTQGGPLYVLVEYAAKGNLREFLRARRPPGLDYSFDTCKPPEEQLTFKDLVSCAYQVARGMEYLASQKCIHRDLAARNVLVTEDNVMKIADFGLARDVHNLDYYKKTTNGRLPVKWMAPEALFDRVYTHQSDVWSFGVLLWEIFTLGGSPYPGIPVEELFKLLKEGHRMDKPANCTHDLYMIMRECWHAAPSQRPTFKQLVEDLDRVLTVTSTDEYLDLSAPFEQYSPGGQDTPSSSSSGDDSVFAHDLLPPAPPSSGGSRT
T4 sequence (P49840 whole entry, species assumed): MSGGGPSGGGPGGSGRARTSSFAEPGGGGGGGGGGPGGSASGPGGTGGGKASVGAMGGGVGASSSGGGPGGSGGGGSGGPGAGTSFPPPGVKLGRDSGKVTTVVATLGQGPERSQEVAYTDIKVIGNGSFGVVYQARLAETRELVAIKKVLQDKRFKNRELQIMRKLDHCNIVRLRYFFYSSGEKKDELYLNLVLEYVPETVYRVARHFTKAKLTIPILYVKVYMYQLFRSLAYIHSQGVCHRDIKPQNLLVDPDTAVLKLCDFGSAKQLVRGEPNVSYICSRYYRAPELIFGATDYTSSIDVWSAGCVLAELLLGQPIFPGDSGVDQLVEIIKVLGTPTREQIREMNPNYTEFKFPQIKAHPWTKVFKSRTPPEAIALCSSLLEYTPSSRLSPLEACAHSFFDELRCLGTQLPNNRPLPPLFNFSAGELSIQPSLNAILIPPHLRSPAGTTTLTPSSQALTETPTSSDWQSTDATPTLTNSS
T6 sequence (P80192 whole entry, species assumed): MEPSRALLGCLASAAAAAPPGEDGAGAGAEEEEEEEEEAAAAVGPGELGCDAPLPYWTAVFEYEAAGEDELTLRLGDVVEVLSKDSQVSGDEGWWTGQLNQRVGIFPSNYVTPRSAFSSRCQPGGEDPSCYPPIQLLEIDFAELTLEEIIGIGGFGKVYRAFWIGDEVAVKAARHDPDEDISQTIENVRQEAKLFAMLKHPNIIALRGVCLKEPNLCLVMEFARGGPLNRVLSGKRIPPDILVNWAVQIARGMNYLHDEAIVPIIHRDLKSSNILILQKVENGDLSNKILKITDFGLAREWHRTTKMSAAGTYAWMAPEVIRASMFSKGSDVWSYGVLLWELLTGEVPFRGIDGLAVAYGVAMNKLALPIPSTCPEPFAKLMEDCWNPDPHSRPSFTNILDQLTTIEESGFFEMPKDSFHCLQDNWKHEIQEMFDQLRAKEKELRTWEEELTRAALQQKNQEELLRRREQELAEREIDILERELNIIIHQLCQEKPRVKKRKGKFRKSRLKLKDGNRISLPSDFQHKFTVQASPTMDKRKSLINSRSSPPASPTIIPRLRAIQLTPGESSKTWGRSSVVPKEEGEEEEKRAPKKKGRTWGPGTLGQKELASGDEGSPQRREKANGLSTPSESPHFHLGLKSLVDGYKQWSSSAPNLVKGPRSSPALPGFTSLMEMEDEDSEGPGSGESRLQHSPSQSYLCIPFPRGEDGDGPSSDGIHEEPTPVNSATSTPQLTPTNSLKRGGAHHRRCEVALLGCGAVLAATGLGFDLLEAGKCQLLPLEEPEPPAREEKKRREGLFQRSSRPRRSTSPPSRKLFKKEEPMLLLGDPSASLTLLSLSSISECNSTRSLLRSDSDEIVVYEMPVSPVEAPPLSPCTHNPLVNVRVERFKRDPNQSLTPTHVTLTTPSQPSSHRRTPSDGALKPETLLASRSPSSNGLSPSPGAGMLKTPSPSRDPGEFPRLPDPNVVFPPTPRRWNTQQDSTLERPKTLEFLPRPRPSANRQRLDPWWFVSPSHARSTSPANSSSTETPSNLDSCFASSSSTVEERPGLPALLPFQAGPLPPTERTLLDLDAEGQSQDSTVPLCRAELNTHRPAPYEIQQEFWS

C=CC(=O)N1CCCC(c2c(F)cc(C(N)=O)c3[nH]c4c(c23)CCCCC4)C1 (single isomer, unassigned) [Compound 5-6]
inhibition at 1 µM (DDR2): -6.5%
inhibition at 1 µM (KDR): 10.3%
inhibition at 1 µM (MAPK12/P38G): -1.9%
inhibition at 1 µM (FRK): 4.2%
inhibition at 1 µM (GSK3A): 2.9%
inhibition at 1 µM (PRKCG/PKCG): -7.3%
inhibition at 1 µM (FGFR3): 24.2%
inhibition at 1 µM (IKBKE/IKKE): 3.4%
inhibition at 1 µM (MAP3K9): -0.9%

C=CC(=O)N1CCC[C@@H](c2c(F)cc(C(N)=O)c3[nH]c4c(c23)CCC4)C1 [Compound 10-2, (S)-8-(1-acryloylpiperidin-3-yl)-7-fluoro-1,2,3,4-tetrahydrocyclo-penta[b]indole-5-carboxamide]
inhibition at 1 µM (DDR2): -26.7%
inhibition at 1 µM (KDR): 32.7%
inhibition at 1 µM (MAPK12/P38G): 4.2%
inhibition at 1 µM (FRK): -4.1%
inhibition at 1 µM (GSK3A): -37.7%
inhibition at 1 µM (PRKCG/PKCG): 1.3%
inhibition at 1 µM (FGFR3): 18.3%
inhibition at 1 µM (IKBKE/IKKE): -12.8%
inhibition at 1 µM (MAP3K9): 12.3%

C=CC(=O)N1CCC[C@@H](c2c(F)cc(C(N)=O)c3[nH]c4c(c23)CC2(CC4)CC2)C1 [Compound 6-2, (S)-5-(1-acryloylpiperidin-3-yl)-6-fluoro-1,2,4,9-tetrahydrospiro[carbazole-3,1′-cyclopropane]-8-carboxamide]
inhibition at 1 µM (DDR2): -15.9%
inhibition at 1 µM (KDR): 31.6%
inhibition at 1 µM (MAPK12/P38G): 31.3%
inhibition at 1 µM (FRK): -2.8%
inhibition at 1 µM (GSK3A): -5.1%
inhibition at 1 µM (PRKCG/PKCG): 8.6%
inhibition at 1 µM (FGFR3): 10.5%
inhibition at 1 µM (IKBKE/IKKE): -18%
inhibition at 1 µM (MAP3K9): 28.8%
